The text below walks through data of patent US8455528B2, “Imidazole derivatives useful as inhibitors of FAAH” (Merck Sharp & Dohme Corp., priority 2008, dated 2013).

The term IC50 denotes the concentration needed to halve the response being measured.

Assay [1] addresses T1, Rat FAAH (Rattus norvegicus, UniProt P97612).
T1 construct: expressed in transfected cells
T1 sequence (P97612 1-579): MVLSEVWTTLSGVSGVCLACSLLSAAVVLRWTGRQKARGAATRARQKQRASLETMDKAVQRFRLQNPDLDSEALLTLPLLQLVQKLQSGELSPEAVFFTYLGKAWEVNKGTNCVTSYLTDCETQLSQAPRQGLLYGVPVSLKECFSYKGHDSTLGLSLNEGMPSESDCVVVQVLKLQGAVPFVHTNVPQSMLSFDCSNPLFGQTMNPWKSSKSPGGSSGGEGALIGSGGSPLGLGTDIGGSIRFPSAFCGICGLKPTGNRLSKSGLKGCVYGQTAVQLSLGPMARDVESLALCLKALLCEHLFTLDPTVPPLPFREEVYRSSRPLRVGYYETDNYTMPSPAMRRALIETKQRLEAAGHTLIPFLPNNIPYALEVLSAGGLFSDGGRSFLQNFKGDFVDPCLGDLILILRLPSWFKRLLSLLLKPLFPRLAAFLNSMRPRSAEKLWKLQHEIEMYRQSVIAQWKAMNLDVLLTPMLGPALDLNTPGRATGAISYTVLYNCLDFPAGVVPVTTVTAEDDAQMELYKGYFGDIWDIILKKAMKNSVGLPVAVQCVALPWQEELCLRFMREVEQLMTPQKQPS
Put plainly: Rat FAAH whole cell assay (FAAH_CHO cells). It is filed as cell-based. The settings on record: FAAH inhibition, whole CHO cells expressing rat FAAH. An excerpt:
(§1) Murine (accession number NM_010173) and Rat FAAH (accession number NM_024132) was amplified by reverse transcriptase polymerase chain reaction (RT-PCR) from brain cDNA (BD Biosciences, San Jose, Calif.) using primers 1 and 2 or primers 1 and 3 respectively (see Table). The resulting PCR product was ligated into pCR4 TOPO and DNA sequence confirmed. The full length murine FAAH was subcloned into the mammalian expression vector, pcDEFneo using either EcoRI (murine) or KpnI and EcoRI (rat) restriction sites. Chinese hamster ovary cells (CHO) were transfected following manufacturers protocol (AMAXA). Forty eight hours post transfection, cells were trypsinized and transferred to 96 well plates in Iscove's DMEM media supplemented with 2 mM Glutamine, 10% fetal calf serum, 1 mg/ml geneticin and HT Supplement (0.1 mM sodium hypoxanthine, 0.016 mM thymidine) in order to isolate single clones. Following selection in geneticin, individual clones were selected and FAAH activity was assessed using a whole cell fluorescent anandamide assay, modified from Ramarao et al (2005). Following removal of tissue culture media cells were dislodged following addition of Cellstripper (Mediatech, Inc. Manassas, Va.) and transferred to 96 well black clear bottom assay plate, centrifuged at 1,000 rpm for 3 mins and media removed and replaced with assay buffer (50 mM Tris pH8.0, 1 mM EDTA, 0.1% fatty acid free BSA). The reaction was initiated by addition of fluorescent substrate, AMC Arachidonoyl Amide (Cayman Chemical, Ann Arbor, Mich.) to 1 μM and reaction allowed to proceed for 2 hours at room temperature. Release of fluorescence was monitored in a CytoFluor Multiplate Reader. Cells expressing the highest amount of FAAH activity were selected for study with FAAH inhibitors.
(§2) (American Radiolabeled Chemicals; 1 mCi/ml) with FAAH (Life Sciences (1995), 56, 1999-2005 and Journal of Pharmacology and Experimented Therapeutics (1997), 283, 729-734), Analytical. Biochemistry (2003), 318, 270-5. In addition, routine assays were performed monitoring hydrolysis of arachidonyl-7-amino-4-methylcoumarin amide (AAMCA) by following increase in fluorescence upon release of 7-amino 4-methyl coumarin (λEX=355 nm, (λEM=460 nm). Analytical. Biochemistry (2005). 343, 143-51
(§3) Assays are performed on either cell lysate or microsome fractions prepared as described or in whole cell format employing either the fluorescent substrate AAMCA (Cayman chemical, Ann Arbor, Mich.) or ^3H-anandmaide ([ETHANOLAMINE-1-3H] American Radiolabeled Chemicals; 1 mCi/ml). The cell lysate or microsome assay is performed in Costar black wall, clear bottom plates by adding FAAH_CHO (whole cell, cell lysate or microsome) in assay buffer (50 mM Phosphate, pH 8.0, 1 mM EDTA, 200 mM KCl, 0.2% glycerol, 0.1% fatty acid free BSA) to each well, followed by either DMSO or compound and allowed to incubate at 22-25° C. for fifteen minutes. AAMCA substrate was used to achieve a final concentration of 1 μM and reaction allowed to proceed at room temperature for 1-3 hours. Fluorescent release as a measure of FAAH activity was monitored by reading the plate in a CytoFluor Multiplate Reader ([…]). Whole cell assay is conducted with cells harvested after rinsing tissue culture flasks three times with Ca^++Mg^++ free PBS, incubating for 10 min in Enzyme free dissociation media and centrifuging for 5 minutes at 1,000 rpm in table top centrifuge. Cells are resuspended in assay buffer at desired cell number in (4×10^4 cells/assay in 96-well format; 1×10^4 cells/assay in 384-well format) and assayed as described.

Assay [2] concerns the target T2, Human FAAH (Homo sapiens, UniProt O00519).
T2 construct: The full length FAAH was subcloned into the mammalian expression vector, pcDEF.neo; expressed in transfected cells
T2 sequence (O00519 1-579): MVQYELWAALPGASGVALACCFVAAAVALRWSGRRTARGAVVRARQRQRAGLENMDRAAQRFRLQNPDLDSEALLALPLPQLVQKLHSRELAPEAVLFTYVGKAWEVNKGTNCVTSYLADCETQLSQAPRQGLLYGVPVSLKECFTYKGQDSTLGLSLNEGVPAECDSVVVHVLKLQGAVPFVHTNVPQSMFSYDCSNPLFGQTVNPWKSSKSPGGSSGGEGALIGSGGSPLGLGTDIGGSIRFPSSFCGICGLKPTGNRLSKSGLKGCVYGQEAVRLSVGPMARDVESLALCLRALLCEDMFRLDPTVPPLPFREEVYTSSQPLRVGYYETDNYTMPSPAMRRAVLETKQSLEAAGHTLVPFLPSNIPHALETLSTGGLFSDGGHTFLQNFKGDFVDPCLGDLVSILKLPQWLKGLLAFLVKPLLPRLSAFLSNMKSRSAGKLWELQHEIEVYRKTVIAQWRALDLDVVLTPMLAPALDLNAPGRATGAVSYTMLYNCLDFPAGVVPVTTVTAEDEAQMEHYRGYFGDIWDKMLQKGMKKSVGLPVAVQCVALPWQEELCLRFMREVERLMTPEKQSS
Put plainly: Human FAAH whole cell assay (FAAH_CHO cells). It is filed as cell-based. The settings on record: FAAH inhibition, whole CHO cells expressing human FAAH.
Source text: To assist in assay development stable cell lines for human, murine and rat full length FAAH were developed. Human FAAH cDNA (Accession No: NM_001441.1) was purchased from Origene (Rockville, Md.). The full length FAAH was subcloned into the mammalian expression vector, pcDEF.neo, using XbaI and EcoRI restriction sites and used for stable cell line generation.
as §1, §2, §3

For `CS(=O)(=O)c1ccc(-c2nc(C3CCC3)[nH]c2Sc2ccc(Cl)cc2)cc1` [Ex 13], the figures for the IC50 in assay [1] and in assay [2] were 702 nM and 3000 nM, respectively.

On to `Cn1c(-c2ccccc2)nc(-c2ccc(C#N)cc2)c1Sc1ccc(Cl)cc1` [Ex 2, 4-{5-[(4-Chlorophenyl)thio]-1-methyl-2-phenyl-1H-imidazol-4-yl}benzonitrile], for which the concentration for half-maximal inhibition (IC50) in assay [1] was 30.1 nM; in assay [2] it was 84.8 nM.

With `CC(C)c1nc(-c2ccc(S(C)(=O)=O)cc2)c(Sc2ccc(Cl)cc2)n1C` [Ex 29, 5-[(4-Chlorophenyl)thio]-2-isopropyl-1-methyl-4-[4-(methylsulfonyl)phenyl]-1H-imidazole], the 50% inhibitory concentration (IC50) is 105 nM in assay [1] and 480 nM in assay [2].

As to `Cn1c(-c2ccccn2)nc(-c2ccc(-n3ccnn3)cc2)c1Sc1ccc(Cl)cc1` [Ex 66], the IC50 in assay [1] was found to be 31.9 nM; in assay [2], 52.2 nM.

Turning to `Cn1c(C2CCC2)nc(-c2ccc(S(C)(=O)=O)cc2)c1Sc1ccc(Cl)cc1` [Ex 14], the IC50 was determined as 146 nM in assay [1] and 107 nM in assay [2].

For the compound `Cn1c(-c2ccccn2)nc(-c2ccc(-c3nnco3)cc2)c1Sc1ccc(Cl)cn1` [Ex 36, 5-Chloro-2-({1-methyl-4-[4-(1,3,4-oxadiazol-2-yl)phenyl]-2-pyridin-2-yl-1H-imidazol-5-yl}thio)pyridine], the IC50 in assay [1] was found to be 63.4 nM; in assay [2], 48.6 nM.

For the compound `Cn1c(-c2ccccn2)nc(-c2ccc(C(O)C(F)F)cc2)c1Sc1ccc(Cl)cc1` (stereo not drawn) [Ex 57, 1-(4-{5-[(4-Chlorophenyl)thio]-1-methyl-2-pyridin-2-yl-1H-imidazol-4-yl}phenyl)-2,2-difluoroethanol], the IC50 is 59.6 nM in assay [1] and 67.8 nM in assay [2].

In the case of `Cn1cnc(-c2ccc(C#N)cc2)c1Sc1ccc(Cl)cc1` [Ex 33, 4-{5-[(4-chlorophenyl)thio]-1-methyl-1H-imidazol-4-yl}benzonitrile], the figures for the IC50 in assay [1] and in assay [2] were 1210 nM and 2980 nM, respectively.

Take `Cn1c(-c2ccccn2)nc(-c2ccc(N)cc2)c1Sc1ccc(Cl)cc1` [Ex 98, 4-{5-[(4-Chlorophenyl)thio]-1-methyl-2-pyridin-2-yl-1H-imidazol-4-yl}aniline]: the IC50 in assay [1] came out at 870 nM; in assay [2] it was 1000 nM.
